The target of test [1] is Autoinducer 2-binding periplasmic protein LuxP (Vibrio harveyi, UniProt P54300). The test can be described thus: Agonist activity at Vibrio harveyi BB170 LuxP assessed as inhibition of autoinducer-2-induced quorum sensing after 5 hrs by luminescence assay. Format: functional.
For test [2], the target named is Autoinducer 2-binding periplasmic protein LuxP (Vibrio harveyi) (UniProt P54300). Kind of test: Agonist activity at Vibrio harveyi MM30 LuxP assessed as inhibition of autoinducer-2-induced quorum sensing. Format: functional.
Sequence of Autoinducer 2-binding periplasmic protein LuxP (Vibrio harveyi) (P54300 whole entry): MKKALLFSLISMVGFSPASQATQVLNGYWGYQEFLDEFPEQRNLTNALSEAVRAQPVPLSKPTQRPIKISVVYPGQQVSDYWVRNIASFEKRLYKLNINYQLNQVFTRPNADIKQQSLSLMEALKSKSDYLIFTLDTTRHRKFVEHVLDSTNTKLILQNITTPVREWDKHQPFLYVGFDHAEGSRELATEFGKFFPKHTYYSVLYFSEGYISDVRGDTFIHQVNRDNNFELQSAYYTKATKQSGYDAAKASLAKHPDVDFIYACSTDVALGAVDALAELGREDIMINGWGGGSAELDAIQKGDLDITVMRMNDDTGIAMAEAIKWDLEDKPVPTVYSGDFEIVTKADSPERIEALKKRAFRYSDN
Test [3] relates to Pseudomonas aeruginosa. The test can be described thus: Inhibition of Pseudomonas aeruginosa PAO-JP2-luxCDABE quorm sensing at 200 uM measured every 20 min by luminescence assay in presence of 3-oxo-C12-HSL.
The test system of test [4] is Pseudomonas aeruginosa PAO1. The test can be described thus: Inhibition of wild type Pseudomonas aeruginosa PAO1-luxCDABE quorm sensing measured after 20 mins by luminescence assay.
Test [5] has as its system Pseudomonas aeruginosa PAO1. Kind of test: Inhibition of wild type Pseudomonas aeruginosa PAO1 assessed as reduction in pyocyanin production at 100 uM after 19 hrs […]. Further details: scale not given: the % may be the effect or the level left.
Test [6] relates to Pseudomonas aeruginosa. The test can be described thus: Inhibition of Pseudomonas aeruginosa PAO-JP2-luxCDABE quorm sensing measured every 20 mins in presence of 3-oxo-C12-HSL.
Test [7] concerns Pseudomonas aeruginosa. The test can be described thus: Inhibition of wild type Pseudomonas aeruginosa PAO1-luxCDABE growth at >200 uM by luminescence assay. Format: functional, organism-based.
Test [8] has as its system Pseudomonas aeruginosa. The test can be described thus: Inhibition of wild type Pseudomonas aeruginosa PAO1 growth at 100 uM. In kind it is functional, organism-based.

SMILES strings stand for the structures. Active and inactive are the calls of the source. No cut-off for these calls is given here.

Sequence of Autoinducer 2-binding periplasmic protein LuxP (P54300 whole entry): as above

As a reminder, the EC50 is the concentration at which the effect is half-maximal. The term inhibition denotes the change of the read-out against control, counted positive when it falls. For `CCCCC(=O)C(=O)[C@@H](O)CO`, the EC50 in test [1] is 1010 nM. In addition, the outcome in test [2] was inactive. The inhibition (in the test with Pseudomonas aeruginosa [3]; in test [4]) was 40% throughout. Moreover, the figures for the Activity (in test [5]; in the test with Pseudomonas aeruginosa [6]) were 59% and “Dose-dependent effect”, respectively. Also, the inhibition result in the test on Pseudomonas aeruginosa [7] was “inactive”.
For the compound `CCCC(=O)C(=O)[C@@H](O)CO`, the EC50 in test [1] stood at 750 nM. In addition, in test [2], the result was inactive. Moreover, in the test with Pseudomonas aeruginosa [8], the inhibition result is “inactive”.
On to `CCCCCC(=O)C(=O)[C@@H](O)CO`, for which the EC50 in test [1] amounted to 1350 nM. Moreover, the outcome in test [2] was inactive. The inhibition (in the test with Pseudomonas aeruginosa [3]; in test [4]) was 40% each time. The Activity in test [5] is 53%; in the test on Pseudomonas aeruginosa [6], “Dose-dependent effect”. For the same compound, the inhibition entry in the test with Pseudomonas aeruginosa [7] is “inactive”.
With `CCC(=O)C(=O)[C@@H](O)CO`, in test [1], the EC50 amounted to 580 nM. For the same compound, the outcome in test [2] was Active. In the test with Pseudomonas aeruginosa [8], the inhibition entry is “inactive”.
The like results for `CCCCCCC(=O)C(=O)[C@@H](O)CO` were, in that order, 1520 nM, “inactive” and “inactive”.
Regarding `CCCCCCCC(=O)C(=O)[C@@H](O)CO`, the EC50 in test [1] is 1810 nM. Besides, in test [2], the outcome was inactive. In addition, in the test with Pseudomonas aeruginosa [8], the inhibition result was “inactive”.
Regarding `CC(=O)C(=O)[C@@H](O)CO`, in test [1], the EC50 was 150 nM. Moreover, the result in test [2] was inactive. The inhibition result in the test on Pseudomonas aeruginosa [8] is “inactive”.

The values above are taken from ChEMBL document CHEMBL1153604, “Inhibition of Pseudomonas aeruginosa quorum sensing by AI-2 analogs” (Bioorg Med Chem Lett, 2009).
